Patent US20210040118A1, “IMMUNOMODULATORS, COMPOSITIONS AND METHODS THEREOF” (BETTA PHARMACEUTICALS CO., LTD, priority 2018, published 2021)

Molecular target: T1, PD-1/PD-L1 (Homo sapiens, UniProt Q9NZQ7)
T1 construct: Recombinant human PD-L1 protein (19-238) with a His-tag at the C-terminus; purchased AcroBiosystems PD1-H5229 (PD-L1); PD1-H5257 (PD-1)
Assay: PD-1/PD-L1 homogenous time-resolved fluorescence (HTRF) binding assay
Settings: recombinant human PD-L1 (19-238) His-tag / human PD-1 (25-167) Fc tag
Procedure: Resolved Fluorescence (HTRF) Binding Assay
The assays were conducted in a standard black 384-well polystyrene plate with a final volume of 20 μL. Inhibitors were first serially diluted in DMSO and then added to the plate wells before the addition of other reaction components. The final concentration of DMSO in the assay was 1%. The assays were carried out at 25° C. in the PBS buffer (pH 7.4) with 0.05% Tween-20 and 0.1% BSA. Recombinant human PD-L1 protein (19-238) with a His-tag at the C-terminus was purchased from AcroBiosy stems (PD1-H5229). Recombinant human PD-1 protein (25-167) with Fc tag at the C-terminus was also purchased from AcroBiosystems (PD1-H5257). PD-L1 and PD-1 proteins were diluted in the assay buffer and 10 μL was added to the plate well. Plates were centrifuged and proteins were preincubated with inhibitors for 40 min. The incubation was followed by the addition of […] of HTRF detection buffer supplemented with Europium cryptate-labeled anti-human IgG (PerkinElmer-AD0212) specific for Fc and anti-His antibody conjugated to SureLight®-Allophycocyanin (APC, PerkinElmer-AD0059H). After centrifugation, the plate was incubated at 25° C. for 60 min. Before reading on a PHERAstar FS plate reader (665 nm/620 nm ratio). Final concentrations in the assay were […] PD1, 10 nM PD-L1, 1 nM europium anti-human IgG and 20 nM anti-His-Allophycocyanin. IC50 determination was performed by fitting the curve of percent control activity versus the log of the inhibitor concentration using the GraphPad Prism 5.0 software.
Data obtained for the Example compounds using the PD-1/PD-L1 homogenous time-resolved fluorescence (HTRF) binding assay described in Example A is provided in Table 4.

T1 sequence (Q9NZQ7 19-238): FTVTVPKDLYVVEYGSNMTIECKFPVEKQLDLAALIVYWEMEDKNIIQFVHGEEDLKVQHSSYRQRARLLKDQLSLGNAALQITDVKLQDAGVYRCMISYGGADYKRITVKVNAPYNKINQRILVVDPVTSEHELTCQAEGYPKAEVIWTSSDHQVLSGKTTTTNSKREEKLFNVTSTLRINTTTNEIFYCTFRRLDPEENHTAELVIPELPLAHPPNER

| IC50 (class symbols) [nM] | IC50 (numeric values) [nM] | SMILES |
| --- | --- | --- |
| < 25 | – | O=C(O)CN1CCc2nc(C(=O)Nc3cccc(-c4cccc(NC(=O)c5nc6c(s5)CN(CC(=O)O)CC6)c4Cl)c3Cl)sc2C1 [Example 65, 2,2′-((((2,2′-dichloro-[1,1′-biphenyl]-3,3′-diyl)bis(azanediyl))bis(carbonyl))bis(6,7-dihydrothiazolo[5,4-c]pyridine-2,5(4H)-diyl))diacetic acid] |
| < 25 | – | Cc1c(NC(=O)c2nc3c(s2)CNCC3)cc(F)cc1-c1cc(F)cc(NC(=O)c2nc3c(s2)CNCC3)c1C [Example 96, N,N′-(5,5′-difluoro-2,2′-dimethyl-[1,1′-biphenyl]-3,3′-diyl)bis(4,5,6,7-tetrahydrothiazolo[5,4-c]pyridine-2-carboxamide)] |
| < 25 | – | O=C(c1nc2c(s1)CN(CCCB(O)O)CC2)N1CCc2c(-c3cccc4c3CCN4C(=O)c3nc4c(s3)CN(CCCB(O)O)CC4)cccc21 [Example 121, ((([4,4′-biindoline]-1,1′-dicarbonyl)bis(6,7-dihydrothiazolo[5,4-c]pyridine-2,5(4H)-diyl))bis(propane-3,1-diyl))diboronic acid] |
| < 25 | – | NC(=S)NCCN1CCc2nc(C(=O)N3CCc4c(-c5cccc6c5CCN6C(=O)c5nc6c(s5)CN(CCNC(N)=S)CC6)cccc43)sc2C1 [Example 133, 1,1′-((([4,4′-biindoline]-1,1′-dicarbonyl)bis(6,7-dihydrothiazolo[5,4-c]pyridine2,5(4H)-diyl))bis(ethane-2,1-diyl))bis(thiourea)] |
| < 25 | – | Cc1c(NC(=O)c2nc3c(s2)CNCC3)cc(F)cc1-c1cccc2c1CCN2C(=O)c1nc2c(s1)CNCC2 [Example 95, N-(5-fluoro-2-methyl-3-(1-(4,5,6,7-tetrahydrothiazolo[5,4-c]pyridine-2-carbonyl)indolin-4-yl)phenyl)-4,5,6,7-tetrahydrothiazolo[5,4-c]pyridine-2-carboxamide] |
| < 25 | – | CN(CCN1CCc2nc(C(=O)N3CCc4c(-c5cccc6c5CCN6C(=O)c5nc6c(s5)CN(CCN(C)S(C)(=O)=O)CC6)cccc43)sc2C1)S(C)(=O)=O [Example 118, N,N′-((([4,4′-biindoline]-1,1′-dicarbonyl)bis(6,7-dihydrothiazolo[5,4-c]pyridine-2,5(4H)-diyl))bis(ethane-2,1-diyl))bis(N-methylmethanesulfonamide)] |
| 100 to 200 | – | O=C(c1nc2n(n1)CCNC2)N1CCc2c(-c3cccc4c3CCN4C(=O)c3nc4n(n3)CCNC4)cccc21 [Example 136, [4,4′-biindoline]-1,1′-diylbis((5,6,7,8-tetrahydro-[1,2,4]triazolo[1,5-a]pyrazin-2-yl)methanone)] |
| < 25 | – | Cc1c(Nc2nccc3cc(CNCC(=O)O)cnc23)cccc1-c1cccc(Nc2nccc3cc(CNCC(=O)O)cnc23)c1C [Example 138, 2,2′-(((((2,2′-dimethyl-[1,1′-biphenyl]-3,3′-diyl)bis(azanediyl))bis(1,7-naphthyridine-8,3-diyl))bis(methylene))bis(azanediyl))diacetic acid] |
| < 25 | – | Cc1c(NC(=O)c2nc3c(o2)CNCC3)cccc1-c1cccc(NC(=O)c2nc3c(s2)CNCC3)c1C [Example 14, N-(2,2′-dimethyl-3′-(4,5,6,7-tetrahydrothiazolo[5,4-c]pyridine-2-carboxamido)-[1,1′-biphenyl]-3-yl)-4,5,6,7-tetrahydrooxazolo[5,4-c]pyridine-2-carboxamide] |
| < 25 | – | Cc1c(Nc2nccc3cc(CN4CCCCC4C(=O)O)cnc23)cccc1-c1cccc(Nc2nccc3cc(CN4CCCCC4C(=O)O)cnc23)c1C (centres unmarked) [Example 155, 1,1′-((((2,2′-dimethyl-[1,1′-biphenyl]-3,3′-diyl)bis(azanediyl))bis(1,7-naphthyridine-8,3-diyl))bis(methylene))bis(piperidine-2-carboxylic acid)] |
| < 25 | – | Cc1c(Nc2nccc3cc(CNCC(=O)N(C)C)cnc23)cccc1-c1cccc2c1CCN2C(=O)C1=NC2CCN(CC(=O)O)CC2S1 (centres unmarked) [Example 165, 2-(2-(4-(3-((3-(((2-(dimethylamino)-2-oxoethyl)amino)methyl)-1,7-naphthyridin-8-yl)amino)-2-methylphenyl)indoline-1-carbonyl)-3a,6,7,7a-tetrahydrothiazolo[5,4-c]pyridin-5(4H)-yl)acetic acid] |
| < 25 | – | Cc1c(Nc2nccc3cc(CNCC(=O)N(C)C)cnc23)cccc1-c1cccc(Nc2nccc3cc(CNCC(=O)N(C)C)cnc23)c1C [Example 145, 2,2′-(((((2,2′-dimethyl-[1,1′-biphenyl]-3,3′-diyl)bis(azanediyl))bis(1,7-naphthyridine-8,3-diyl))bis(methylene))bis(azanediyl))bis(N,N-dimethylacetamide)] |
| – | 0.48 | Cc1c(NC(=O)c2nc3c(s2)CNCC3)cccc1-c1cccc(NC(=O)c2nc3c(s2)CNCC3)c1C [Example 1, N,N′-(2,2′-dimethyl-[1,1′-biphenyl]-3,3′-diyl)bis(4,5,6,7-tetrahydrothiazolo[5,4-c]pyridine-2-carboxamide)] |
| 25 to 100 | – | Cc1c(NC(=O)c2ccc3c(n2)CCN(CCN2CCOCC2)C3)cccc1-c1cccc(NC(=O)c2ccc3c(n2)CCN(CCN2CCOCC2)C3)c1C [Example 176, N,N′-(2,2′-dimethyl-[1,1′-biphenyl]-3,3′-diyl)bis(6-(2-morpholinoethyl)-5,6,7,8-tetrahydro-1,6-naphthyridine-2-carboxamide)] |
| < 25 | – | Cc1c(NC(=O)c2nc3c(s2)CN(CC(=O)O)CC3)cccc1-c1cccc(NC(=O)c2nc3c(s2)CN(CC(=O)O)CC3)c1C [Example 4, 2,2′-((((2,2′-dimethyl-[1,1′-biphenyl]-3,3′-diyl)bis(azanediyl))bis(carbonyl))bis(6,7-dihydrothiazolo[5,4-c]pyridine-2,5(4H)-diyl))diacetic acid] |
| 25 to 100 | – | CS(=O)(=O)NC(=O)C1(N2CCc3nc(C(=O)N4CCc5c(-c6cccc7c6CCN7C(=O)c6nc7c(s6)CN(C6(C(=O)NS(C)(=O)=O)CC6)CC7)cccc54)sc3C2)CC1 [Example 129, 1,1′-(([4,4′-biindoline]-1,1′-dicarbonyl)bis(6,7-dihydrothiazolo[5,4-c]pyridine-2,5(4H)-diyl))bis(N-(methylsulfonyl)cyclopropane-1-carboxamide)] |
| > 200 | – | Cc1oc(=O)oc1COC(=O)N1CCc2nc(C(=O)Nc3cccc(-c4cccc(NC(=O)c5ccc6c(n5)CCN(C(=O)OCc5oc(=O)oc5C)C6)c4C)c3C)ccc2C1 [Example 184, bis((5-methyl-2-oxo-1,3-dioxol-4-yl)methyl) 2,2′-(((2,2′-dimethyl-[1,1′-biphenyl]-3,3′-diyl)bis(azanediyl))bis(carbonyl))bis(7,8-dihydro-1,6-naphthyridine-6(5H)-carboxylate)] |
| < 25 | – | Cc1c(NC(=O)c2cc3c(s2)CCNC3)cccc1-c1cccc(NC(=O)c2nc3c(s2)CNCC3)c1C [Example 15, N-(2,2′-dimethyl-3′-(4,5,6,7-tetrahydrothieno[3,2-c]pyridine-2-carboxamido)-[1,1′-biphenyl]-3-yl)-4,5,6,7-tetrahydrothiazolo[5,4-c]pyridine-2-carboxamide] |
| – | 212 | Cc1c(NC(=O)c2nc3c(s2)CNCC3)cccc1-c1ccccc1 [Com. EX. No. 1, N-(2-methyl-[1,1′-biphenyl]-3-yl)-4,5,6,7-tetrahydrothiazolo[5,4-c]pyridine-2-carboxamide, reference compound] |
| < 25 | – | O=C(c1nc2c(s1)CN(Cc1nn[nH]n1)CC2)N1CCc2c(-c3cccc4c3CCN4C(=O)c3nc4c(s3)CN(Cc3nn[nH]n3)CC4)cccc21 [Example 125, [4,4′-biindoline]-1,1′-diylbis((5-((2H-tetrazol-5-yl)methyl)-4,5,6,7-tetrahydrothiazolo[5,4-c]pyridin-2-yl)methanone)] |
| < 25 | – | Cc1nc(C(=O)Nc2cccc(-c3cccc(NC(=O)c4nc(C)c(CN5CCCC[C@H]5C(=O)O)s4)c3Cl)c2C)sc1CN1CCCC[C@H]1C(=O)O [Example 54, (2S,2'S)-1,1′-(2,2′-(2-chloro-2′-methylbiphenyl-3,3′-diyl)bis(azanediyl)bis(oxomethylene)bis(4-methylthiazole-5,2-diyl))bis(methylene)dipiperidine-2-carboxylic acid] |
| < 25 | – | CN1CCc2nc(C(=O)N3CCc4c(-c5cccc6c5CCN6C(=O)c5nc6c(s5)CN(C)CC6)cccc43)sc2C1 [Example 83, [4,4′-biindoline]-1,1′-diylbis((5-methyl-4,5,6,7-tetrahydrothiazolo[5,4-c]pyridin-2-yl)methanone)] |
| – | 3.13 | Cc1c(NC(=O)c2nnc(C3(N)CCC3)s2)cccc1-c1cccc(NC(=O)c2nnc(C3(N)CCC3)s2)c1C [Example 27, N,N′-(2,2′-dimethyl-[1,1′-biphenyl]-3,3′-diyl)bis(5-(1-aminocyclobutyl)-1,3,4-thiadiazole-2-carboxamide)] |
